According to paper PMC7180830, “Scaffold Hopping in Discovery of HIV-1 Non-Nucleoside Reverse Transcriptase Inhibitors: From CH(CN)-DABOs to CH(CN)-DAPYs” (Molecules, 2020):
Read-outs that look alike come from different tables or passages of the source.

Legend:
[1] = tested on: HIV-1 IIIB; test: Anti-HIV assay against wild-type HIV-1 (IIIB) in MT-4 cells, MTT method; format: cell-based; conditions: for SI (selectivity index, ratio CC50/EC50 (WT)): CC50/EC50 WT HIV-1 IIIB
Procedure: (§1) Untreated HIV- and mock-infected cell samples were included as controls. […] Five days after infection, the viability of mock- and HIV-infected cells was examined spectrophotometrically using the MTT assay. […] All data were calculated using the median absorbance value of three wells.

[2] = Cytotoxicity in mock-infected MT-4 cells, MTT method; conditions: human, mock-infected (uninfected) MT-4 cells
Procedure: as §1

[3] = tested on: HIV-1 L100I mutant strain; test: Anti-HIV assay against L100I mutant strain in MT-4 cells; format: cell-based; conditions: Human immunodeficiency virus 1, MT4, read-out: EC50 L100I
Procedure: (§2) Evaluation of the antiviral activity of the compounds against HIV in MT-4 cells was performed using the MTT assay as previously described [24, 25]. […] Prior to use in our assays, every freshly grown virus stock was the subject of a genotypic analysis. In addition to the genotypic analysis, every stock was subject to a phenotypic analysis using a panel of relevant reference compounds in MT-4 cells. […] Stock solutions (10× final concentration) of test compounds were added in 25 μL volumes to two series of triplicate wells so as to allow simultaneous evaluation of their effects on mock- and HIV-infected cells at the beginning of each experiment. Serial 5-fold dilutions of test compounds were made directly in flat-bottomed 96-well microtiter trays using a Biomek 3000 robot (Beckman instruments, Fullerton, CA). Untreated HIV- and mock-infected cell samples were included as controls. HIV stock (50 μL) at 100–300 CCID50 (50% cell culture infectious doses) and culture medium (final 200 μL volume per well) were added to either the infected or mock-infected wells of the microtiter tray. Mock-infected cells were used to evaluate the effects of test compounds on uninfected cells in order to assess the cytotoxicity of the test compounds. Exponentially growing MT-4 cells were centrifuged for 5 min at 220× g and the supernatant was discarded. The MT-4 cells were resuspended at 6 × 10^5 cells/mL and 50 μL volumes were transferred to the microtiter tray wells. Five days after infection, the viability of mock- and HIV-infected cells was examined spectrophotometrically using the MTT assay. The MTT assay is based on the reduction of yellow colored 3-(4,5-dimethylthiazol-2-yl)-2,5-diphenyltetrazolium bromide (MTT) (Acros Organics, Geel, Belgium) by mitochondrial dehydrogenase activity in metabolically active cells to a blue-purple formazan that can be measured spectrophotometrically. The absorbances were read in an eight-channel computer-controlled photometer (Infinite M1000, Tecan, Männedorf, Switzerland) at two wavelengths (540 and 690 nm). All data were calculated using the median absorbance value of three wells.

[4] = tested on: HIV-1 K103N mutant strain; test: Anti-HIV assay against K103N mutant strain in MT-4 cells; format: cell-based; conditions: Human immunodeficiency virus 1, MT4, read-out: EC50 K103N
Procedure: as §2

[5] = tested on: HIV-1 Y181C mutant strain; test: Anti-HIV assay against Y181C mutant strain in MT-4 cells; format: cell-based; conditions: Human immunodeficiency virus 1, MT4, read-out: EC50 Y181C
Procedure: as §2

[6] = tested on: HIV-1 E138K mutant strain; test: Anti-HIV assay against E138K mutant strain in MT-4 cells; format: cell-based; conditions: Human immunodeficiency virus 1, MT4, read-out: EC50 E138K
Procedure: as §2

[7] = tested on: HIV-1 F227L + V106A mutant strain; test: Anti-HIV assay against double mutant F227L + V106A in MT-4 cells; format: cell-based; conditions: Human immunodeficiency virus 1, MT4, read-out: EC50 F227L + V106A
Procedure: as §2

[8] = tested on: HIV-1 K103N + Y181C mutant strain; test: Anti-HIV assay against double mutant K103N + Y181C in MT-4 cells; format: cell-based; conditions: Human immunodeficiency virus 1, MT4, read-out: EC50 K103N + Y181C
Procedure: as §2

[9] = Human immunodeficiency virus 1, MT4, wild-type HIV-1 IIIB, MT-4 cells, protection against HIV-induced cytopathogenicity, read-out: EC50 HIV-1 IIIB
[10] = Human immunodeficiency virus 1, IIIB, MT4, read-out: EC50 HIV-1 IIIB

SMILES	SI (selectivity index, ratio CC50/EC50 (WT)) ([1]; MT-4 cells)	EC50 [1, 9]	CC50 at 5 days [2]	EC50 [3]	EC50 [4]	EC50 [5]	EC50 [6]	EC50 [7]	EC50 [8]	EC50 [1, 10]	melting point
O=C1Nc2ccc(Cl)cc2[C@@](C#CC2CC2)(C(F)(F)F)O1 [Efavirenz, efavirenz, reference compound]	>3939	0.003 ± 0.001 µM	> 6.3 µM	0.04 ± 0.008 µM	0.08 ± 0.01 µM	0.006 ± 0.001 µM	0.005 ± 0.002 µM	0.28 ± 0.07 µM	0.24 ± 0.06 µM		
N#Cc1ccc(Nc2nccc(C(C#N)c3c(Cl)cc(C#N)cc3Cl)n2)cc1 (stereo not shown) [Compound A10, 4-(4-(cyano-(2,6-dichloro-4-cyanophenyl)methyl)-pyrimidin-2-ylamino)benzonitrile]	55		4.5 ± 1.3 µM	2.32 ± 0.48 µM	1.78 ± 0.12 µM	2.2 ± 0.27 µM	2.19 ± 0.22 µM	> 4.49 µM	> 4.49 µM	0.082 ± 0.02 µM	152.5 to 153.2 °C
COc1cc(C(C#N)c2ccnc(Nc3ccc(C#N)cc3)n2)ccc1C#N (stereo not shown) [Compound A4, 4-(4-(cyano-(3-methoxy-4-cyanophenyl)methyl)-pyrimidin-2-ylamino)benzonitrile]	7		78.4 ± 10.4 µM	≥ 61.4 µM	≥ 62.2 µM	≥ 48.1 µM	≥ 56.6 µM	≥ 61 µM	≥ 65.7 µM	11.7 ± 12.1 µM	156.2 to 157 °C
Cc1cc(C#N)c(Br)cc1C(C#N)c1ccnc(Nc2ccc(C#N)cc2)n1 (stereo not shown) [Compound A12, 4-(4-(cyano-(2-methyl-5-bromo-4-cyanophenyl)methyl)-pyrimidin-2-ylamino)benzonitrile]			13.2 ± 1.6 µM	> 13.2 µM	2.52 ± 0.42 µM	2.78 ± 0.36 µM	3.73 ± 0.59 µM	> 13.2 µM	> 13.2 µM	0.24 ± 0.04 µM	
Cc1cc(/C=C/C#N)cc(C)c1Nc1ccnc(Nc2ccc(C#N)cc2)n1 [Rilpivirine, rilpivirine, reference compound]	3747		5.9 ± 0.3 µM	0.002 ± 0.001 µM	0.001 ± 0.0002 µM	0.003 ± 0.001 µM	0.003 ± 0.001 µM	0.04 ± 0.01 µM	0.009 ± 0.002 µM	0.0016 ± 0.0003 µM	
Cc1c(C(C#N)c2ccnc(Nc3ccc(C#N)cc3)n2)ccc(C#N)c1Cl (stereo not shown) [Compound A11, 4-(4-(cyano-(2-methyl-3-chloro-4-cyanophenyl)methyl)-pyrimidin-2-ylamino)benzonitrile]			6.1 ± 0.5 µM	2.32 ± 0.48 µM	> 6.11 µM	> 6.11 µM	> 6.11 µM	> 6.11 µM	> 6.11 µM	0.3 ± 0.03 µM	
Cc1ccnc2c1NC(=O)c1cccnc1N2C1CC1 [Nevirapine, nevirapine, reference compound]		0.2 ± 0.1 µM	> 15 µM	0.98 ± 0.39 µM	4.7 ± 0.63 µM		0.2 ± 0.15 µM	≥ 4.28 µM	> 15 µM		
Cc1cc(C#N)cc(C)c1Oc1nc(Nc2ccc(C#N)cc2)nc(N)c1Br [Etravirine, etravirine, reference compound]			> 4.6 µM	0.008 ± 0.002 µM	0.003 ± 0.001 µM	0.017 ± 0.003 µM	0.008 ± 0.004 µM	0.014 ± 0.005 µM	0.04 ± 0.01 µM	0.005 ± 0.001 µM	
N#Cc1ccc(Nc2nccc(C(C#N)c3ccc(C#N)cc3)n2)cc1 (stereo not shown) [Compound A1, 4-(4-(cyano-(4-cyanophenyl)methyl)-pyrimidin-2-ylamino)benzonitrile]			32.7 ± 9.9 µM	≥ 12.3 µM	> 32.7 µM	11.3 ± 1.51 µM	> 32.7 µM	> 32.7 µM	> 32.7 µM	3.27 ± 2.25 µM	
N#Cc1ccc(Nc2nccc(C(C#N)c3ccc(C#N)cc3Cl)n2)cc1 (stereo not shown) [Compound A8, 4-(4-(cyano-(2-chloro-4-cyanophenyl)methyl)-pyrimidin-2-ylamino)benzonitrile]			4.6 ± 2.7 µM	≥ 2.37 µM	2.13 ± 0.22 µM	1.87 ± 0.21 µM	2.2 ± 0.35 µM	> 4.59 µM	> 4.59 µM	0.063 ± 0.009 µM	
